Experimental data published in patent US7705191B2, “Hydrofluoroalkyl phenols having anesthetic properties” (University of Iowa Research Foundation, priority 2006, dated 2010).

Legend:
GABA receptors = assay: In vitro assay of direct activation of GABA receptors; type: cell-based; details: FIG. 2
Source text: FIG. 2 is a graph showing the direct activation of GABA receptors by phenolic compounds.
Propofol and analogs are known to activate GABA receptors (see, e.g., Trapani et al., J. Med. Chem. 1998, 41, 1846-1854, incorporated herein by reference). While the relationship between GABA activation and anesthetic activity is not completely clear, it is believed that the ability of a compound to directly activate GABA receptors may be related to the anesthetic, sedative, and/or anxiolytic activity of the compound. Compounds of the invention can be tested in vitro electrophysiological assays to determine the ability of the compound to activate GABA receptors.
Certain compounds were tested in an in vitro assay to determine whether the compounds were capable of direct activation of GABA receptors.

rat = assay: Loss of righting reflex / anesthesia after intravenous injection in rats; type: in vivo; details: for onset of loss of righting reflex: two rats; for duration of anesthesia / loss of righting reflex: 10 mg/kg i.v. bolus
Procedure: For Examples 2 and 3, compounds were administered into the […] of the rat. The vehicle was 12-16% Cremophor EL dissolved in saline. The purity of each compound was approximately 96%.
Compound 1 was synthesized as described in Example 1. Approximately 15 mg/ml of the suspension were injected into the lateral tail vein of two rats (weight 300-320 g). […] The loss of righting reflex lasted for about 4 to 5 minutes. Upon awaking, the animals became active (e.g., started exploring behavior, walking, chewing, etc.).
Compound 3 (prepared as in Example 1) was formulated in Cremophor EL at a concentration of 10 mg/ml. Compound 3 was injected into the lateral tail vein of two rats at a dose of 10 mg/kg.

[1] = lateral tail vein injection, approximately 15 mg/ml suspension

Row | SMILES | direct activation of GABA receptors (GABA receptors) | response to tail pinching during loss of righting reflex (rat; [1]) | shaking or tremors during induction or recovery (rat; [1]) | onset of loss of righting reflex (rat; lateral tail vein injection, approximately 15 mg/ml suspension, Cremophor EL/saline vehicle) | duration of anesthesia / loss of righting reflex (rat) | potency relative to propofol (rat; 10 mg/kg, inferred from duration of loss of righting reflex) | onset of loss of righting reflex (rat; lateral tail vein injection, 10 mg/kg, 10 mg/ml in Cremophor EL)
1 | CC(C)c1cccc(CC(F)(F)F)c1O [Compound 1, 2-isopropyl-6-(2,2,2-trifluoroethyl) phenol] | found to have activity | did not respond to tail pinching | did not exhibit shaking or tremors | immediately lost their righting reflex | – | – | –
2 | CC(C)c1cccc(C(C)C(F)(F)F)c1O (stereo not shown) [Compound 3, 2-isopropyl-6-(1-trifluoromethyl)ethyl phenol] | found to have activity | – | – | – | approximately 10 min | more potent than propofol | immediately lost their righting reflex
3 | CC(C)c1cc(C(O)C(F)(F)F)cc(C(C)C)c1O (stereo not shown) [MB003, 2,6-Diisopropyl-4-(2,2,2-trifluoro-1-hydroxy-ethyl)-phenol] | found to have activity | – | – | – | – | – | –
4 | CC(C)c1cccc(C(C)C)c1O [Propofol, 2,6-diisopropylphenol, reference compound] | – | – | – | – | 7.5 min | – | –
